Test [1] concerns the target recombinant purified human JAK1 (Homo sapiens (Human), UniProt P23458). Description: in vitro JAK kinase assay on ADP Glo platform, JAK1. In kind it is biochemical. To be noted: 50 μM ATP, 1 hr at room temperature. Here is the method: (§1) NCEs were screened using in vitro JAK (1, 2 and 3) kinase assay on ADP Glo platform (Promega). Fixed amount of recombinant purified human JAK (25 ng of JAK1 and 10 ng of JAK2 and JAK3 per reaction, from Life Technologies Ltd) were incubated with increasing concentration of NCEs in 1× kinase reaction buffer (40 mM Tris-Cl, pH7.5, 20 mM MgCl2, 0.1 mg/ml BSA and 50 μM DTT). Enzymatic reaction was initiated by adding a substrate cocktail containing 50 μM of ATP (final concentration) and 5 μg for JAK1 and 2.5 μg for JAK2 and JAK3 of polyGln4Tyr1 (Signal Chem) in total 25 μl of reaction in 96 well plate. The reaction was incubated at room temperature for 1 hr.
(§2) After 1 hr of incubation equal volume (25 μl per reaction) of ADP Glo was added and incubated at room temperature for 40 min.
(§3) This was followed by addition of kinase detection reagent (50 μl per reaction) and incubation at room temperature for 30 min. Finally, plate was read for luminescence at an integration time of 500 millisecond per well.
(§4) Data were plotted taking Enzyme with no inhibitor set as the 100% kinase activity. IC50 values were calculated using Graph Pad Prism software.
A general note: ADP-Glo first removes unused ATP, then detects ADP through luciferase.

Test [2] concerns the target recombinant purified human JAK3 (Homo sapiens (Human), UniProt P52333). Description: in vitro JAK kinase assay on ADP Glo platform, JAK3. In kind it is biochemical. To be noted: 50 μM ATP, 1 hr at room temperature; read-out: JAK-3 IC50. As for the experimental part: as §1, §2, §3, §4
In test [3] the test system is PGPS arthritis, PAW inflammation. The test can be described thus: Peptidogylcan Polysaccharide Polymers (PGPS) arthritis. In kind it is in vivo, Sprague dawley rats. The following applies: rats, values for day 16. Here is the method:
Female Sprague dawley rats were primed with an intra-articular injection of 20 μl of PGPS at 0.5 mg/ml of rhamnose in the right ankle. At 2 weeks the ankle diameters were measured with plethysmometer and rats assigned to groups of similar distribution of initial joint diameters. Rats then received their first dose of compound followed 1 h later by an i.v. injection of 0.5 ml of PGPS (0.5 mg/ml of rhamnose) in the tail vein. Compounds were dosed at 10 mg/kg and ankle diameters measured for 3 days [i.e. day 15, 16, 17]. Values are given for day 16.

Test [4] addresses recombinant purified human JAK2 (Homo sapiens (Human), UniProt O60674). Description: in vitro JAK kinase assay on ADP Glo platform, JAK2. The following applies: 50 μM ATP, 1 hr at room temperature; read-out: JAK-2 IC50. In kind it is biochemical. Here is the method:
as §1, §2, §3, §4

The target in another test is JAK 2 (Homo sapiens (Human), UniProt O60674). To be noted: reported in WO 2008109943; read-out: reported in vitro JAK 2 inhibition; cited from earlier work.
Sequence of JAK 2 (O60674 whole entry, species assumed): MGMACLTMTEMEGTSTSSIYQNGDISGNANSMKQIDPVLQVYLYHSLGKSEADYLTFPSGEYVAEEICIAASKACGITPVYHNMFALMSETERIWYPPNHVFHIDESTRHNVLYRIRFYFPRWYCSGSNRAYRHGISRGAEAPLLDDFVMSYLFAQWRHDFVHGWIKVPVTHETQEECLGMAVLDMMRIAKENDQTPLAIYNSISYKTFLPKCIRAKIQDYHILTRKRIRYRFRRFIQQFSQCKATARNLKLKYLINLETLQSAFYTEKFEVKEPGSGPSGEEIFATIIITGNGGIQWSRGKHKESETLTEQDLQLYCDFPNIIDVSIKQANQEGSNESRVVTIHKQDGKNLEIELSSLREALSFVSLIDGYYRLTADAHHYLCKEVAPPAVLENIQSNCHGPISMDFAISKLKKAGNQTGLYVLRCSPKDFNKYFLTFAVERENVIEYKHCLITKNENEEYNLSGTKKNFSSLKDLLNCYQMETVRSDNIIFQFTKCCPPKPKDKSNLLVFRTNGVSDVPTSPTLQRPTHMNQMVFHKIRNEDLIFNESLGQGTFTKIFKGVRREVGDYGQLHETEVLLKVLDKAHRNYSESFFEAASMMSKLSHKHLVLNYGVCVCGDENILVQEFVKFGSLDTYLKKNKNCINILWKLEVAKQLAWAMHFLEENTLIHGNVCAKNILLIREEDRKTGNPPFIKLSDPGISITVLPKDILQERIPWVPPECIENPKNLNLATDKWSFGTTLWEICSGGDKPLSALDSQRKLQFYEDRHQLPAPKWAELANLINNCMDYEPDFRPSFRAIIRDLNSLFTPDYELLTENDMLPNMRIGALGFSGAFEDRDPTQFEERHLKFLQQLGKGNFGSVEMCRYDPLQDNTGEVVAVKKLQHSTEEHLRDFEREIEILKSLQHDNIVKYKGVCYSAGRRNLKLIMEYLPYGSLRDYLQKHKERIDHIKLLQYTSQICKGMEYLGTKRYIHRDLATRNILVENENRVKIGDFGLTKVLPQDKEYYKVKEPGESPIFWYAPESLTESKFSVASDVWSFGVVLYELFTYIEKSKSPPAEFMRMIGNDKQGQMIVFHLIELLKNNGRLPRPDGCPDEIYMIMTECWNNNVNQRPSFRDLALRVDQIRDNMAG
A further test deals with JAK-3 (Homo sapiens (Human), UniProt P52333). To be noted: reported in WO 2008109943; read-out: reported in vitro JAK-3 inhibition; cited from earlier work.
Sequence of JAK-3 (P52333 whole entry, species assumed): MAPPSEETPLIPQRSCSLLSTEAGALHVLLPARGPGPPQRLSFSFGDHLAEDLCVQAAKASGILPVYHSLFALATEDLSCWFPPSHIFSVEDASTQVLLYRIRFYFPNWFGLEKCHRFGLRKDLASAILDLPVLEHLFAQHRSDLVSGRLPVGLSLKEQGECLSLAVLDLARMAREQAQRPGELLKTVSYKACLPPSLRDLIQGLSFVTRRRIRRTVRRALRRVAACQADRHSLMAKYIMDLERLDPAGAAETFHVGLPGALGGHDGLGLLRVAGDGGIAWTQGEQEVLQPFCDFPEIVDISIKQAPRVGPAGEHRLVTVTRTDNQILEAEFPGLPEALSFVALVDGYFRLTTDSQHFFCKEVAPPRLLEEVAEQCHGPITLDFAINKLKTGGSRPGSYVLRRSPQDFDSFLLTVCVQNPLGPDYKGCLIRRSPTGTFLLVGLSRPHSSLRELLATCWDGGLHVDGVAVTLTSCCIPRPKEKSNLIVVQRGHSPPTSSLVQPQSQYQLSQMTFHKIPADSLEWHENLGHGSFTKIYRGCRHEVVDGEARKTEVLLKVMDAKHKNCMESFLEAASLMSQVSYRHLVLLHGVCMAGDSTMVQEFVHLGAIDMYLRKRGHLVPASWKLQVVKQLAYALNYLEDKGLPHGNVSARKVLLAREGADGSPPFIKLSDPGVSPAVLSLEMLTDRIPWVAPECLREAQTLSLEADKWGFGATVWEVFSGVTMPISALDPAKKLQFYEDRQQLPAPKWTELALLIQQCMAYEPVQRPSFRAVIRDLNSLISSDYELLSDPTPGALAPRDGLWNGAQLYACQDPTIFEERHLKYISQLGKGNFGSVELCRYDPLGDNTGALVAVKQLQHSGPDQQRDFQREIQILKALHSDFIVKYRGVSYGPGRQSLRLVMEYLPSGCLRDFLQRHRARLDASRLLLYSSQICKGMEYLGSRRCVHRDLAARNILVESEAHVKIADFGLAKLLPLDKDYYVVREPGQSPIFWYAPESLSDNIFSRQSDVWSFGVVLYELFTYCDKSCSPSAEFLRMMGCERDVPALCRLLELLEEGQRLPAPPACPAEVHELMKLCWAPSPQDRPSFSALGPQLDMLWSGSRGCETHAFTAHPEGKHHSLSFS

The values below come from patent US9556148B2, “N-cyanomethylamides as inhibitors of janus kinase” (CADILA HEALTHCARE LIMITED, priority 2013, dated 2017).

Sequence of recombinant purified human JAK3 (P52333 whole entry): as the sequence (P52333 whole entry, species assumed) above
Sequence of recombinant purified human JAK1 (P23458 whole entry): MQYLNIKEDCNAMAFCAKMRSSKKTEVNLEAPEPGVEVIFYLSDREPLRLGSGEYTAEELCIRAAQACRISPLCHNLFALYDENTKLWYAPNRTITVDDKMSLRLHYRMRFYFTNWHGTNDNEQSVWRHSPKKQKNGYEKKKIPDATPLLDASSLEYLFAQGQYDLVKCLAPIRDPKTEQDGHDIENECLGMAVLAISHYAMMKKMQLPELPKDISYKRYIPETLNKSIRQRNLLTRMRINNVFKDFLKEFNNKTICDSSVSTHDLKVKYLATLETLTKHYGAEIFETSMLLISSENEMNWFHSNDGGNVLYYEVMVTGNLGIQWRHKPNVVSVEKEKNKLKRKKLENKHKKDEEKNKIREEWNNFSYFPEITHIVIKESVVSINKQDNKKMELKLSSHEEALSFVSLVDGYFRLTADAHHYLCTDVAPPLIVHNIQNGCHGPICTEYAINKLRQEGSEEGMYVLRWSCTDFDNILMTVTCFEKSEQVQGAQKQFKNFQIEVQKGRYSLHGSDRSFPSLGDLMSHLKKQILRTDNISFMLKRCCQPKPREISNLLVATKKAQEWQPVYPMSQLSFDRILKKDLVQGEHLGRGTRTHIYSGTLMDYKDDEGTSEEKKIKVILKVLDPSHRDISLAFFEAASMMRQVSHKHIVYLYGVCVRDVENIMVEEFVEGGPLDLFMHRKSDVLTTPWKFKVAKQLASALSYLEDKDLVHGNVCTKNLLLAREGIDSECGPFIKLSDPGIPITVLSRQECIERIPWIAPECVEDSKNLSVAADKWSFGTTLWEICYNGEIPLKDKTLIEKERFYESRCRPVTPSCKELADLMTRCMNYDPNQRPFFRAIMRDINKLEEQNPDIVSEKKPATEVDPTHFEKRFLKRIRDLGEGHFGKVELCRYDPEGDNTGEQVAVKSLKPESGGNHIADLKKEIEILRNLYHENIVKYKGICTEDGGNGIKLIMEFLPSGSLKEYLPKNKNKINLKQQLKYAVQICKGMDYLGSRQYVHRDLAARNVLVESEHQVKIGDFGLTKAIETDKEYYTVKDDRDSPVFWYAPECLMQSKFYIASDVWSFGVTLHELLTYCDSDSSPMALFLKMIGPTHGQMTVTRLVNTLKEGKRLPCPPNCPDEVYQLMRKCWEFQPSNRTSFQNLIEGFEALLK
Sequence of recombinant purified human JAK2 (O60674 whole entry): as the sequence (O60674 whole entry, species assumed) above

Take `N#CCNC(=O)c1ccc(-c2ccnc(Nc3ccc(N4CCC(N5CCCC5=O)CC4)cc3)n2)cc1` [Example 1, N-(cyanomethyl)-4-(2-((4-(4-(2-oxopyrrolidin-1-yl)piperidin-1-yl)phenyl)amino)pyrimidin-4-yl)benzamide]: the results for the IC50 in test [1] and in test [2] were 12.1 nM and 72 nM, respectively. In addition, the “% Reduction in PAW inflammation at dose 10 mg/Kg” value (from here on “% Reduction in PAW inflammation”) in test [3] came to 51%.
Consider `N#CCNC(=O)c1ccc(-c2ccnc(Nc3ccc(N4CCC(N5CCOCC5)CC4)cc3)n2)cc1` [Example 3, N-(cyanomethyl)-4-(2-((4-(4-morpholinopiperidin-1-yl)phenyl)amino)pyrimidin-4-yl)benzamide], for which the “% Reduction in PAW inflammation” value in test [3] was found to be 56%.
In the case of `N#CCNC(=O)c1ccc(-c2ccnc(Nc3ccc(N4CCC(n5cncn5)CC4)cc3)n2)cc1` [Example 4, 4-(2-((4-(4-(1H-1,2,4-triazol-1-yl)piperidin-1-yl)phenyl)amino)pyrimidin-4-yl)-N-(cyanomethyl)benzamide], the IC50 in test [1] worked out at 21 nM; in test [4], 17 nM; in test [2], 66 nM. Moreover, the “% Reduction in PAW inflammation” value in test [3] was found to be 52%.
In the case of `N#CCNC(=O)c1ccc(-c2ccnc(Nc3ccc(N4CCC(N5CC6CC(C5)O6)CC4)cc3)n2)cc1` [Example 17, 4-(2-((4-(4-(6-oxa-3-azabicyclo[3.1.1]heptan-3-yl)piperidin-1-yl)phenyl)amino)pyrimidin-4-yl)-N-(cyanomethyl)benzamide], the IC50 stood at 13 nM in test [1], 8 nM in test [4] and 69 nM in test [2]. The “% Reduction in PAW inflammation” value in test [3] came to 57%.
As to `N#CCNC(=O)c1ccc(-c2ccnc(Nc3ccc(N4CCC(N5CCC6(CCCO6)CC5)CC4)cc3)n2)cc1` [Example 24, 4-(2-((4-(4-(1-oxa-8-azaspiro[4.5]decan-8-yl)piperidin-1-yl)phenyl)amino)pyrimidin-4-yl)-N-(cyanomethyl)benzamide], the IC50 is 5 nM in test [1], 5 nM in test [4] and 23 nM in test [2]. The “% Reduction in PAW inflammation” value in test [3] worked out at 41%.
For `Cc1nnc(C2CCN(c3ccc(Nc4nccc(-c5ccc(C(=O)NCC#N)cc5)n4)cc3)CC2)o1` [Example 25, N-(cyanomethyl)-4-(2-((4-(4-(5-methyl-1,3,4-oxadiazol-2-yl)piperidin-1-yl)phenyl)amino)pyrimidin-4-yl)benzamide], in test [1], the IC50 is 12 nM. Besides, the “% Reduction in PAW inflammation” value in test [3] came out at 63%.
In the case of `N#CCNC(=O)c1ccc(-c2ccnc(Nc3ccc(N4CCC(c5n[nH]c(=O)o5)CC4)cc3)n2)cc1` [Example 29, N-(cyanomethyl)-4-(2-((4-(4-(5-oxo-4,5-dihydro-1,3,4-oxadiazol-2-yl)piperidin-1-yl)phenyl)amino)pyrimidin-4-yl)benzamide], the IC50 came out at 15 nM in test [1], 21 nM in test [4] and 56 nM in test [2]. Besides, the “% Reduction in PAW inflammation” value in test [3] stood at 43%.
Consider `Cc1nnc(C2CCN(c3ccc(Nc4ncc(C)c(-c5ccc(C(=O)NCC#N)cc5)n4)cc3)CC2)o1` [Example 43, N-(cyanomethyl)-4-(5-methyl-2-((4-(4-(5-methyl-1,3,4-oxadiazol-2-yl)piperidin-1-yl)phenyl)amino)pyrimidin-4-yl)benzamide], for which the IC50 in test [1] turned out to be 1.2 nM; in test [4], 2.6 nM; in test [2], 52.3 nM.
Regarding `N#CCNC(=O)c1ccc(-c2ccnc(Nc3ccc(ON4CCC(N5CCCC5)CC4)cc3)n2)cc1` [compounds 2], the IC50 on JAK 2 is less than 1000 nM; at JAK-3, less than 20000 nM.
